Source: PMC8224802 (Pharmaceutics, 2021)
Read-outs that look alike come from different tables or passages of the source.

Legend:
[1] = system: microsomal metabolism of RPG in RLM; assay: In vitro inhibition of RPG metabolism by QCT in RLM; format: in vitro ADME, rat; conditions: RLM
Protocol: The intrinsic metabolic clearance (CLint) was calculated as Vmax/Km. […] The parameter α is indicative of the inhibition type. The mixed model is a general equation that includes competitive, uncompetitive, and noncompetitive inhibition as special cases. When α = 1, the mixed model is identical to a noncompetitive inhibition. When α is very large (α→∞) or very small (α→0), the mixed model becomes identical to competitive inhibition or uncompetitive inhibition, respectively.

[2] = Plasma protein binding by rapid equilibrium dialysis (rat plasma); format: in vitro ADME, Sprague-Dawley rat
Protocol: (§1) A 200 μL spiked samples and 400 μL PBS were placed into the “sample” and “buffer” chambers of the RED device, respectively. After 4-h incubation to equilibrate between the buffer and plasma compartments, the RED plate was sampled from both compartments. The samples were matrix-matched for analysis by addition of either diluted plasma or buffer; (a) blank diluted plasma added to the buffer samples and (b) blank buffer added to the diluted plasma sample, at a ratio of 50:50 v/v. The unbound fractions in microsomes and diluted plasma were determined by dividing the analyte/IS peak area ratios of the (a) sample by those of the (b) sample. The unbound fraction in diluted plasma (fu,d) was converted to the unbound fraction in undiluted plasma (fu) using a Kalvass equation as below (DF: dilution factor). (1) fu=1/DF/[(1/fu,d)−1]+1/DF

[3] = Microsomal protein binding by rapid equilibrium dialysis (RLM); format: in vitro ADME, rat
Protocol: as §1

[4] = humans; cited from earlier work
[5] = In vitro microsomal metabolism of RPG (disappearance) in RLM; format: in vitro ADME, rat; conditions: RLM 0.3 mg/mL, 1–500 μM RPG, Michaelis–Menten fit
Protocol: At 0, 30, and 60 min after starting the metabolic reaction, a 50 μL aliquot of the incubation mixture was sampled and transferred to a clean 1.5-mL microcentrifuge tube containing 150 μL of ice-cold acetonitrile to terminate the metabolic reaction.
The intrinsic metabolic clearance (CLint) was calculated as Vmax/Km. […] Max and Min are the initial and final Y values, respectively, and the power P represents the Hill coefficient. […] Vmax and Km are the same as those defined in Equation (2). The parameter α is indicative of the inhibition type. The mixed model is a general equation that includes competitive, uncompetitive, and noncompetitive inhibition as special cases. When α = 1, the mixed model is identical to a noncompetitive inhibition. When α is very large (α→∞) or very small (α→0), the mixed model becomes identical to competitive inhibition or uncompetitive inhibition, respectively.

[6] = Plasma protein binding by rapid equilibrium dialysis (human plasma); format: in vitro ADME
Protocol: as §1

[7] = In vivo intravenous pharmacokinetic study of RPG without or with QCT in rats; design: species or system Sprague-Dawley rats; conditions: for AUC / clearance / half-life / Vd: Sprague-Dawley, rat, plasma, 0.4 mg/kg; for Vd: read-out: Vss
Protocol: Rats were anesthetized via intramuscular injection of 10 mg/kg zoletil. The femoral vein and artery of the rats were cannulated using a polyethylene tube (BD Medical, Franklin Lakes, NJ, USA). […] The vehicle solutions for the intravenous and oral doses were composed of PEG 400 and aqueous 0.3% CMC solution (50:50 v/v). Approximately 300 μL of blood was collected via the femoral artery at 0, 1, 5, 15, 30, 60, 90, 120, 180, and 240 min after intravenous injection and at 10, 20, 30, 45, 60, 90, 120, 180, and 240 min after oral administration.
Non-compartmental analysis (WinNonlin, version 3.1, NCA200 and 201; Certara, Inc., Princeton, NJ, USA) was conducted to estimate the following pharmacokinetic parameters: total area under the plasma concentration–time curve from time zero to time infinity (AUC); total body clearance (CL, calculated as dose/AUC); terminal half-life (t1/2); and apparent volume of distribution at steady state (Vss). For comparison, the extent of absolute oral bioavailability (F; expressed as percent of dose administered) was calculated by dividing the dose-normalized AUC after oral administration by the dose-normalized AUC after intravenous injection. The peak plasma concentration (Cmax) and time to reach Cmax (Tmax) were obtained directly from the measured experimental data.

[8] = Blood-to-plasma concentration ratio (human whole blood); format: in vitro ADME; conditions: RPG and QCT 5 μM each
Protocol: (§2) A plasma sample was obtained by centrifugation of the blood sample at 2000× g for 5 min.

[9] = In vivo oral pharmacokinetic study of RPG without or with QCT in rats; design: species or system Sprague-Dawley rats; conditions: for bioavailability: read-out: F (absolute oral bioavailability)
Protocol: Rats were anesthetized via intramuscular injection of 10 mg/kg zoletil. The femoral vein and artery of the rats were cannulated using a polyethylene tube (BD Medical, Franklin Lakes, NJ, USA). […] The vehicle solutions for the intravenous and oral doses were composed of PEG 400 and aqueous 0.3% CMC solution (50:50 v/v).
For comparison, the extent of absolute oral bioavailability (F; expressed as percent of dose administered) was calculated by dividing the dose-normalized AUC after oral administration by the dose-normalized AUC after intravenous injection. The peak plasma concentration (Cmax) and time to reach Cmax (Tmax) were obtained directly from the measured experimental data.

[10] = Blood-to-plasma concentration ratio (rat whole blood); format: in vitro ADME; conditions: RPG and QCT 5 μM each
Protocol: as §2

[11] = Microsomal protein binding by rapid equilibrium dialysis (HLM)
Protocol: as §1

[12] = RPG 0.4 mg/kg iv, QCT 25 mg/kg iv
[13] = iv, RPG 0.4 mg/kg iv with QCT 25 mg/kg iv
[14] = iv, RPG 0.4 mg/kg iv, RPG alone
[15] = Sprague-Dawley, rat, plasma, po, 0.4 mg/kg, rats, RPG 0.4 mg/kg oral with QCT 100 mg/kg oral
[16] = Sprague-Dawley, rat, plasma, po, 0.4 mg/kg, rats, RPG 0.4 mg/kg oral, RPG alone
[17] = rats, RPG 0.4 mg/kg oral with QCT 100 mg/kg oral
[18] = rats, RPG 0.4 mg/kg oral, QCT 100 mg/kg oral
[19] = rats, RPG 0.4 mg/kg oral, RPG alone

- Km of RPG metabolism in the Ki estimation study ([1]; QCT 0 μM): 53 µM
- Km of RPG metabolism in the Ki estimation study ([1]; QCT 200 μM): 81 µM
- fraction unbound at 4 h, 5 μM ([2]; Sprague-Dawley, rat, plasma (20-fold diluted), read-out: fuP (unbound fraction in plasma)): 0.0761 ± 0.0094
- Change of fuP of RPG by the presence of QCT ([2]; rat plasma, RPG and QCT 5 μM each): not significantly altered
- Change of fuMIC of RPG by the presence of QCT ([3]; RLM, RPG and QCT 5 μM each): not significantly altered
- fraction unbound at 4 h, 5 μM ([3]; rat, liver microsomes, read-out: fuMIC (unbound fraction in liver microsomes)): 0.671 ± 0.009
- Vmax, metabolism of RPG [5]: 3070 ± 960 pmol/min/mg protein
- Change of fuP of RPG by the presence of QCT ([6]; human plasma, RPG and QCT 5 μM each): not significantly altered
- fraction unbound at 4 h, 5 μM ([6]; human, plasma (20-fold diluted), read-out: fuP (unbound fraction in plasma)): 0.0533 ± 0.006
- Hepatic availability (FH) ([7]; 1 − EH): 0.818–0.886
- AeU ([7]; RPG 0.4 mg/kg iv with QCT 25 mg/kg iv): 1.32 ± 0.88 % of dose
- AUC of RPG higher with concurrent QCT than in control rats [7, 12]: 83.4%
- CL of RPG lower with concurrent QCT than in control rats [7, 12]: 44.9%
- Difference in Vss of RPG between QCT and control groups [7, 12]: no significant differences
- t1/2 of RPG higher with concurrent QCT than in control rats [7, 12]: 40.8%
- AeU ([7]; RPG 0.4 mg/kg iv, RPG alone): 1.60 ± 0.77 % of dose
- Increase of AUC of intravenous RPG after concurrent QCT ([7]; RPG iv with QCT iv vs RPG alone): 1.83 fold
- AUC [7, 13]: 1550 ng·h/mL
- clearance [7, 13]: 4.36 ± 0.54 mL/min/kg
- half-life [7, 13]: 57.4 ± 10.6 min
- Vd [7, 13]: 0.269 ± 0.025 L/kg
- AUC [7, 14]: 845 ng·h/mL
- clearance [7, 14]: 7.92 ± 0.47 mL/min/kg
- half-life [7, 14]: 40.8 ± 4.2 min
- Vd [7, 14]: 0.293 ± 0.018 L/kg
- Urinary and fecal excretion of RPG administered intravenously ([7]; iv): ≤ 1.60 % of the dose
- Hepatic clearance CLH (blood clearance, CL/RB) ([7]; iv RPG alone, assuming exclusive hepatic metabolism): 9.11 mL/min/kg
- Change of RB of RPG by the presence of QCT [8]: not significantly altered
- AUC [9, 15]: 803 ng·h/mL
- Cmax [9, 15]: 238 ± 76 ng/mL
- half-life [9, 15]: 148 ± 49 min
- bioavailability [9, 15]: 95.1%
- Cmax [9, 16]: 129 ± 33 ng/mL
- half-life [9, 16]: 139 ± 66 min
- bioavailability [9, 16]: 50.7%
- Tmax ([9]; Sprague-Dawley, rat, plasma, po, 0.4 mg/kg, read-out: Tmax, median (range) (converted)): 45 min
- AeGI [9, 17]: 2.90 ± 2.50 % of dose
- AeU [9, 17]: 0.371 ± 0.336 % of dose
- Tmax, median (range) [9, 17]: 45 (30–60) min
- AUC of RPG higher with concurrent QCT than in control rats [9, 18]: 87.6%
- Cmax of RPG higher with concurrent QCT than in control rats [9, 18]: 84.2%
- AeGI [9, 19]: 3.41 ± 1.65 % of dose
- AeU [9, 19]: 0.458 ± 0.441 % of dose
- Increase of AUC of orally administered RPG by oral QCT ([9]; rats, RPG oral with QCT 100 mg/kg oral vs RPG alone): 1.88 fold
- Intestinal availability (FG) ([9]; rats, from F = Fabs × FG × FH with Fabs assumed 1): 0.572–0.620
- Fecal excretion of oral RPG ([9]; rats, oral): 2.21–5.78 % of the dose administered
- Change of RB of RPG by the presence of QCT [10]: not significantly altered
- Change of fuMIC of RPG by the presence of QCT ([11]; HLM, RPG and QCT 5 μM each): not significantly altered
- fraction unbound at 4 h, 5 μM ([11]; human, liver microsomes): 0.62 ± 0.152
Structure (SMILES): CCOc1cc(CC(=O)N[C@@H](CC(C)C)c2ccccc2N2CCCCC2)ccc1C(=O)O [RPG, Repaglinide]
- F of RPG [4]: approximately 62.5%
